Source: the NIST ThermoML archive (doi:10.1016/j.jct.2016.07.048)
Numbers after ± are expanded uncertainties.

Key:
[1] = Crystal; DTA
[2] = Molar enthalpy of transition or fusion; settings: Crystal; DSC

Normal melting temperature [1]: 190.09 ± 1.1 °C | Molar enthalpy of transition or fusion [2]: 15.4 ± 0.693 kcal/mol
SMILES: CCCCCCOC(=O)NC(=N)c1ccc(NCc2nc3cc(C(=O)N(CCC(=O)OCC)c4ccccn4)ccc3n2C)cc1.CS(=O)(=O)O [Dabigatran etexilate mesylate]
